ChEMBL document CHEMBL3714762, “Agents and methods for treating ischemic and other diseases” (2012)
The source made the active and inactive calls. The calls are words filed in the database; no cut-off is given here.

What was measured:
[1] = target: Transient receptor potential cation channel subfamily M member 7 (Mus musculus, UniProt Q923J1); experiment: Inhibition of N-terminal Flag-tagged mouse TRPM7 expressed in HEK293T cells assessed as reduction in whole cell currents by whole-cell patch clamp assay; type: cell-based, HEK-293T
HeLa = experiment: Antiproliferative activity against human HeLa cells assessed as inhibition of cell proliferation at 10 uM incubated for 72 hrs by Cell-titer-Glo cell viability assay; type: functional
MCF7 = experiment: Antiproliferative activity against human MCF7 cells assessed as inhibition of cell proliferation at 10 uM incubated for 72 hrs by Cell-titer-Glo cell viability assay; type: functional; conditions: MCF7, 72 h
[2] = Antiproliferative activity against human MCF10A cells assessed as inhibition of cell proliferation at 10 uM incubated for 72 hrs by Cell-titer-Glo cell viability assay; type: cell-based, MCF-10A
[3] = Antiproliferative activity against mouse NIH/3T3 cells assessed as inhibition of cell proliferation at 10 uM incubated for 72 hrs by Cell-titer-Glo cell viability assay; type: cell-based, NIH3T3
[4] = Antiproliferative activity against mouse B16F10 cells assessed as inhibition of cell proliferation at 10 uM incubated for 72 hrs by Cell-titer-Glo cell viability assay; type: functional; conditions: B16-F10, 72 h
Y79 = experiment: Antiproliferative activity against human Y79 cells assessed as inhibition of cell proliferation at 10 uM incubated for 72 hrs by Cell-titer-Glo cell viability assay; type: functional; conditions: Y79, 72 h
[5] = Antiproliferative activity against human DMS53 cells assessed as inhibition of cell proliferation at 10 uM incubated for 72 hrs by Cell-titer-Glo cell viability assay; type: functional; conditions: DMS-53, 72 h
[6] = Antiproliferative activity against human WI38 cells assessed as inhibition of cell proliferation at 10 uM incubated for 72 hrs by Cell-titer-Glo cell viability assay; type: cell-based, WI-38
[7] = Selectivity index, ratio of antiproliferative activity against human WI38 cells to antiproliferative activity against human HeLa cells
[8] = Selectivity index, ratio of antiproliferative activity against human WI38 cells to antiproliferative activity against human MCF7 cells
[9] = Selectivity index, ratio of antiproliferative activity against human WI38 cells to antiproliferative activity against mouse B16F10 cells; set-up: species or system B16-F10
[10] = Selectivity index, ratio of antiproliferative activity against human WI38 cells to antiproliferative activity against human Y79 cells; set-up: species or system WI-38
[11] = Selectivity index, ratio of antiproliferative activity against human WI38 cells to antiproliferative activity against human DMS53 cells; set-up: species or system DMS-53
[12] = Selectivity index, ratio of antiproliferative activity against human MCF10A cells to antiproliferative activity against human HeLa cells
[13] = Selectivity index, ratio of antiproliferative activity against human MCF10A cells to antiproliferative activity against human MCF7 cells; set-up: species or system MCF-10A
[14] = Selectivity index, ratio of antiproliferative activity against human MCF10A cells to antiproliferative activity against mouse B16F10 cells; set-up: species or system MCF-10A
[15] = Selectivity index, ratio of antiproliferative activity against human MCF10A cells to antiproliferative activity against human Y79 cells; set-up: species or system MCF-10A
[16] = Selectivity index, ratio of antiproliferative activity against human MCF10A cells to antiproliferative activity against human DMS53 cells; set-up: species or system MCF-10A
[17] = Selectivity index, ratio of antiproliferative activity against mouse NIH/3T3 cells to antiproliferative activity against human HeLa cells
[18] = Selectivity index, ratio of antiproliferative activity against mouse NIH/3T3 cells to antiproliferative activity against human MCF7 cells
[19] = Selectivity index, ratio of antiproliferative activity against mouse NIH/3T3 cells to antiproliferative activity against mouse B16F10 cells; set-up: species or system B16-F10
[20] = Selectivity index, ratio of antiproliferative activity against mouse NIH/3T3 cells to antiproliferative activity against human Y79 cells
[21] = Selectivity index, ratio of antiproliferative activity against mouse NIH/3T3 cells to antiproliferative activity against human DMS53 cells; set-up: species or system DMS-53
[22] = Antiproliferative activity against human WERI cells assessed as inhibition of cell proliferation at 10 uM by propidium iodide uptake based fluoroskan microplate reader analysis; type: functional
[23] = Antiproliferative activity against human WERI cells assessed as inhibition of cell proliferation at 5 uM by propidium iodide uptake based fluoroskan microplate reader analysis; type: functional
[24] = Antiproliferative activity against human WERI cells assessed as inhibition of cell proliferation by measuring normalized ratio of propidium iodide uptake at 5 uM by propidium iodide uptake based fluoroskan microplate reader analysis; type: functional
[25] = Antiproliferative activity against human WERI cells assessed as inhibition of cell proliferation by measuring normalized ratio of propidium iodide uptake at 10 uM by propidium iodide uptake based fluoroskan microplate reader analysis; type: functional
[26] = Antiproliferative activity against human WERI cells assessed as inhibition of cell proliferation by propidium iodide uptake based fluoroskan microplate reader analysis; type: functional
Cerebral cortex neuron = experiment: Neuroprotection in CD1 mouse primary cortical neuron assessed as reduction in stretch injury-induced cell death at 2 to 10 uM dosed 1 hr after injury by propidium iodide straining based; type: functional
Rattus norvegicus [27] = experiment: Neuroprotection in Sprague-Dawley rat model of fluid percussion injury assessed as reduction in neuronal brain damage dosed before injury at 2 to 10 uM by TTC staining based oscilloscopy; type: functional, organism-based
Rattus norvegicus [28] = species on record: Rattus norvegicus; experiment: Neuroprotection in Sprague-Dawley rat model of fluid percussion injury assessed as increase in balance by measuring mean latency measured on first day post injury by rotarod performance test relative to untreated control; type: functional
Rattus norvegicus [29] = experiment: Neuroprotection in Sprague-Dawley rat model of fluid percussion injury assessed as improvement in learning and memory tasks by measuring latency to reach platform dosed 1 hr after lateral fluid percussion injury by Morris water maze test; type: functional, organism-based
Rattus norvegicus [30] = experiment: Neuroprotection in Sprague-Dawley rat model of fluid percussion injury assessed as reduction in neuronal damage dosed 1 hr after injury by TTC staining based oscilloscopy; type: functional, organism-based
Rattus norvegicus [31] = species on record: Rattus norvegicus; experiment: Neuroprotection in Sprague-Dawley rat model of fluid percussion injury assessed as distance traveled by rotarod performance test relative to untreated control; type: functional, organism-based
Rattus norvegicus [32] = species on record: Rattus norvegicus; experiment: Neuroprotection in Sprague-Dawley rat model of fluid percussion injury assessed as activity parameters by rotarod performance test relative to untreated control; type: functional, organism-based

Transient receptor potential cation channel subfamily M member 7, sequence (Q923J1 whole entry): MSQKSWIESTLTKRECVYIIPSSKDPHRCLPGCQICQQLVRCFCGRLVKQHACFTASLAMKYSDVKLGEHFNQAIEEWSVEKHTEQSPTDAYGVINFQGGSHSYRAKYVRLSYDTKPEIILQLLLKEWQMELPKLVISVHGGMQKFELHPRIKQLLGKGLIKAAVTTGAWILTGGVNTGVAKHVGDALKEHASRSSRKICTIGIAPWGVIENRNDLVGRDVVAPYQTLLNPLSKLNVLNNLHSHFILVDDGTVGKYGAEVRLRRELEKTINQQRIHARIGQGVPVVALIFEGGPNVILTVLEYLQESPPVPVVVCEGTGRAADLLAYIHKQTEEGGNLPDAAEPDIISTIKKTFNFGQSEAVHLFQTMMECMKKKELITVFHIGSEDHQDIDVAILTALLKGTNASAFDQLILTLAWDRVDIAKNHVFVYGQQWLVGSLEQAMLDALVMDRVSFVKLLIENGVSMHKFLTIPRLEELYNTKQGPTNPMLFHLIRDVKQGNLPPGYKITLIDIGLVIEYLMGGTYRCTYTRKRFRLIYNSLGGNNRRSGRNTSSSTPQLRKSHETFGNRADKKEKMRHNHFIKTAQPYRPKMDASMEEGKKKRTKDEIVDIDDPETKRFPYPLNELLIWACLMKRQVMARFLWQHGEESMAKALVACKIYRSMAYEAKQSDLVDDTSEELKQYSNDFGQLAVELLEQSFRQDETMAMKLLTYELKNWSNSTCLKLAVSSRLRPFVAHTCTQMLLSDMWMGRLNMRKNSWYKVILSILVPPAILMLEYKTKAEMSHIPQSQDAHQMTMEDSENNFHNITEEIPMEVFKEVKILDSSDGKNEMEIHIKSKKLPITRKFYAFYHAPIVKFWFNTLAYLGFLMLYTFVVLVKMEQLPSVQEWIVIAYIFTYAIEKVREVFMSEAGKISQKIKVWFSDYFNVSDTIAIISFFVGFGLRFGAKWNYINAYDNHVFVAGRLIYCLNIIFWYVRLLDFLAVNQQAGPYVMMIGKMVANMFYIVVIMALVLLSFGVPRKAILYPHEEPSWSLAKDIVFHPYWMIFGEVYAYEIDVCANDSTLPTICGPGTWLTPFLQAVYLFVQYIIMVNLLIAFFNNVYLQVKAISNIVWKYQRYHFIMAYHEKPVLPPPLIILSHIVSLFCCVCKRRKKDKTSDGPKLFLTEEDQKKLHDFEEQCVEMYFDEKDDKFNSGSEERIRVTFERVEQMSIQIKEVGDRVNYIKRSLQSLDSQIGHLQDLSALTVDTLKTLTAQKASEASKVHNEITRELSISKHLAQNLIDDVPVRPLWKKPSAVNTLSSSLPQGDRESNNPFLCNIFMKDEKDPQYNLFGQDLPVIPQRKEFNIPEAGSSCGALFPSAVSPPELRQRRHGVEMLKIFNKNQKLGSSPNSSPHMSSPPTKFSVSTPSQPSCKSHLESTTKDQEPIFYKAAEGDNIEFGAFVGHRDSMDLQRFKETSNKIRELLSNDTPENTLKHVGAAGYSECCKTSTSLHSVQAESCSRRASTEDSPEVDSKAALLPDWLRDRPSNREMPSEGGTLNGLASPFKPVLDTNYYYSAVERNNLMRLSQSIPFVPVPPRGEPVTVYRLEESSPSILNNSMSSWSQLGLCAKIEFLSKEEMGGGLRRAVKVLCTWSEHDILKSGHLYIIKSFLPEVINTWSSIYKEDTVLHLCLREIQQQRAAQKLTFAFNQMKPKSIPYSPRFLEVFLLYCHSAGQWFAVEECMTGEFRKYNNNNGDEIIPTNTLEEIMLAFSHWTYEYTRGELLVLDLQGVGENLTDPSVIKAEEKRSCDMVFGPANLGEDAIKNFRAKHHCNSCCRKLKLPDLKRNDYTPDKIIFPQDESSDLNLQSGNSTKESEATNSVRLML

| SMILES | inhibition at 10 µM (HeLa) | inhibition at 10 µM (MCF7) | inhibition at 72 h, 10 µM [2] | inhibition at 72 h, 10 µM [3] | inhibition at 10 µM [4] | inhibition at 10 µM (Y79) | inhibition at 10 µM [5] | inhibition at 72 h, 10 µM [6] | Selectivity Index [7] | Selectivity Index [8] | Selectivity Index [9] | Selectivity Index [10] | Selectivity Index [11] | Selectivity Index [12] | Selectivity Index [13] | Selectivity Index [14] | Selectivity Index [15] | Selectivity Index [16] | Selectivity Index [17] | Selectivity Index [18] | other results |
| --- | --- | --- | --- | --- | --- | --- | --- | --- | --- | --- | --- | --- | --- | --- | --- | --- | --- | --- | --- | --- | --- |
| COc1ccc2c(c1)CCN=C2c1sc2ccccc2c1Cl | > 40% | > 40% | > 40% | > 40% | > 40% | > 40% | > 40% | > 40% | 20 | 20 | 20 | 20 | 20 | 20 | 20 | 20 | 20 | 20 | 20 | 20 | IC50 [1]: 5 µM; Selectivity Index [19]: 20; Selectivity Index [20]: 20; Selectivity Index [21]: 20; inhibition at 10 µM [22]: 42%; inhibition at 5 µM [23]: 18%; Ratio [24]: 0.06; Ratio [25]: 0.035; IC50 [26]: 1.19 µM |
| COc1ccc(C(=O)c2sc3ccccc3c2Cl)cc1 | > 40% | > 40% | > 40% | > 40% | > 40% | > 40% | > 40% | > 40% | 20 | 20 | 20 | 20 | 20 | 20 | 20 | 20 | 20 | 20 | 20 | 20 | Selectivity Index [19]: 20; Selectivity Index [20]: 20; Selectivity Index [21]: 20; Ratio [24]: 0.305; Ratio [25]: 0.063; IC50 [26]: 4 µM |
| Cc1c(Cc2ccc(Cl)c(Cl)c2)c(=O)oc2cc(O)ccc12 | – | – | – | – | – | – | – | – | – | – | – | – | – | – | – | – | – | – | – | – | Activity (Cerebral cortex neuron): Active; Activity (Rattus norvegicus [27]): Active; fold change (FC) (Rattus norvegicus [28]): 2; Activity (Rattus norvegicus [29]): Active; Activity (Rattus norvegicus [30]): Active; Activity (Rattus norvegicus [31]): Active; Activity (Rattus norvegicus [32]): Active |
